The target of one assay is T1, BRD4 (Homo sapiens, UniProt O60885).
T1 construct: Western blot (antibody CST #13440)
As to the kind of experiment: Western blot, BRD4 levels in CAL51 cells. The conditions noted are these: 100 nM, 72 hours. Type of assay: cell-based. On the procedure:
All treatments with (+)-JQ1, NZ-147 or NZ-175 were performed at 100 nM concentration over 72 hours.
Cells were homogenised in protein lysis buffer consisting of 0.1 M Tris pH 8.0, 0.1 M NaCl, 5% glycerol, IGEPAL® CA-630 (#18896. Sigma-Aldrich) and 5 mM EDTA, 0.1 M N-ethyl maleimide (ThermoFisher, #23030) and protease inhibitor (Cell Signalling Technologies, #5871). Protein concentrations were determined using the BCA assay to ensure equal loading. […] The membranes were immunoblotted with primary antibodies, overnight at 4° C. […]
Membranes were then incubated with horseradish peroxidase (HRP)-conjugated secondary antibodies (Rabbit #7074 and Mouse #7076) purchased from Cell Signalling Technologies for 1 hour and the HRP signal was detected using EZ-ECL Enhanced Chemiluminescence Detection Kit for HRP (#20-500-500, Sartorius), and imaged with an Alliance Q9 Advanced (UVITec). […]
We generated a BRD4-ULKTAC (NZ-147) by conjugating (+)-JQ1 (BRD4-targeting moiety) to NZ-60 via a PEG linker (FIG. 8A). CAL51 cells (a triple negative breast cancer cell line) were treated with DMSO, (+)-JQ1 or NZ-147 at 100 nM for 72 hours then lysed and analysed by Western blot (FIG. 8B). […]

The subject of a further assay is A549 cells. The assay is described as follows: Cell viability assay (CellTiter Glo), A549. It is filed as cell-based, human. The note with it: A549, increasing concentrations. On the procedure:
(§1) A549 and H1299 cells were seeded in OptiPlate-384 well plates and treated with increasing concentrations of (+)-JQ1 or NZ-147 from 0 μM to 10 µM in Example 8 and with increasing concentrations of NZ-175 from 0 µM to 10 µM in Example 9. Cells were treated for 120 h before using the luciferase based CellTiter Glo assay (Promega) to measure cell viability.
(§2) Cell viability assay was performed in A549 and H1299 cells, which were treated with different concentrations of (+)-JQ1 or NZ-147 at 100 nM for 72 hours (FIG. 10B).
(§3) Cell viability assay was performed in A549 and H1299 cells, which were treated with different concentrations of NZ-147 at 100 nM for 72 hours (FIG. 16B).

A further assay concerns H1299 cells. As to the kind of experiment: Cell viability assay (CellTiter Glo), H1299. Type of assay: cell-based, human. The conditions noted are these: H1299, increasing concentrations. On the procedure: as §1, §2, §3
The subject of a further assay is c-MYC controlled genes. As to the kind of experiment: RT-qPCR of c-MYC controlled genes in CAL51 cells. Type of assay: cell-based, human. The conditions noted are these: 100 nM, 72 hours, vs (+)-JQ1 at equivalent concentration and duration. The protocol: FIG. 11. RT-qPCR quantification of expression of c-MYC controlled genes in CAL51 triple negative breast cancer cell line treated with DMSO, 100 nM (+)-JQ1 or 100 nM NZ-147 for 72 hours. […] MDM2 (A) and CCNE (B) are controlled by cMYC in oncogenic settings, PAICS (C) is a putative target of c-MYC, and eIF4E (D) is a known target of cMYC. n=3, *p<0.05, ** p<0.01, *** p<0.001.
RNA was extracted with the Qiagen RNeasy Mini kit following manufacturers protocol. RT-qPCR SYBR assay was carried out with Mesa Blue following manufacturers instructions, 80 ng RNA per well, experimental triplicates, BioRad CTX Connect qPCR machine. RNA levels were normalized to GAPDH. Experiments were done in biological triplicate. The primers used were as follows:
The levels of c-MYC controlled genes (determined using RT-qPCR) in CAL51 triple negative breast cancer cell line after treatment with DMSO, 100 nM (+)-JQ1 or 100 nM NZ-147 for 72 hours is shown in FIG. 11. In particular MDM2 (FIG. 11A) and CCNE (FIG. 11B) are controlled by cMYC in oncogenic settings, PAICS (FIG. 11C) is a putative target of c-MYC, and elF4E (FIG. 11D) is a known target of c-MYC.

`Cc1sc2c(c1C)C(c1ccc(Cl)cc1)=N[C@@H](CC(=O)NCCOCCOCCOCCn1cc(COc3ccc([C@@H](NC(=O)Nc4cc(C(F)(F)F)cc(C(F)(F)F)c4)C(=O)Nc4ccc(F)cc4F)cc3)nn1)c1nnc(C)n1-2` [NZ-147, (R)-2-(3-(3,5-bis(trifluoromethyl)phenyl)ureido)-2-(4-((1-(1-((S)-4-(4-chlorophenyl)-2,3,9-trimethyl-6H-thieno[3,2-f][1,2,4]triazolo[4,3-a][1,4]diazepin-6-yl)-2-oxo-6,9, 12-trioxa-3-azatetradecan-14-yl)-1H-1,2,3-triazol-4-yl)methoxy)phenyl)-N-(2,4-difluorophenyl) acetamide]: the “levels of BRD4” value at BRD4 is given as “reduced”. The “percentage of live cells” value in the assay with A549 cells and in the assay with H1299 cells was “dose-dependent decrease in the percentage of live cells” each time. In addition, the “impact on c-MYC controlled genes vs (+)-JQ1” value in the assay with c-MYC controlled genes is listed as “significantly more profound impact”.
